#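 How tested: cells in 96-well plates exposed to compound for 48 hours at five concentrations. GI50 marks 50% less growth.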 Calls of active or inactive are those of the source. Rule as the data show it: active = GI50 up to about 1.1 µM and inactive = higher.
# Tests used:
# Assay in all cases: inhibition of tumour cell growth, NCI panel, 48 h
# IGROV-1 = system: IGROV-1
# MOLT-4 = system: MOLT-4
# U-251 = system: U-251
# SF-295 = system: SF-295
# CCRF-CEM = system: CCRF-CEM
# SR = system: SR
# OVCAR-8 = system: OVCAR-8
# K562 = system: K562
# LOX IMVI = system: LOX IMVI
# ACHN = system: ACHN
# HOP-92 = system: HOP-92
# OVCAR-3 = system: OVCAR-3
# A549 = system: A549
# UACC-62 = system: UACC-62
# SK-MEL-2 = system: SK-MEL-2
# OVCAR-4 = system: OVCAR-4
# OVCAR-5 = system: OVCAR-5
# MDA-N = system: MDA-N
# HL-60 = system: HL-60
# MCF7 = system: MCF7
# Malme-3M = system: Malme-3M
# RPMI-8226 = system: RPMI-8226
# HCT-15 = system: HCT-15
# KM12 = system: KM12
# MDA-MB-435 = system: MDA-MB-435
# A498 = system: A498
# SN12C = system: SN12C
# UACC-257 = system: UACC-257
# T47D = system: T47D
# SF-268 = system: SF-268
# CAKI-1 = system: CAKI-1
# NCI-H226 = system: NCI-H226
# RXF 393 = system: RXF 393
# Hs-578T = system: Hs-578T
# 786-0 = system: 786-0
# UO-31 = system: UO-31
# TK-10 = system: TK-10
# SW-620 = system: SW-620
# HOP-62 = system: HOP-62
# COLO 205 = system: COLO 205
# SF-539 = system: SF-539
# M14 = system: M14
# HCT-116 = system: HCT-116
# NCI-H460 = system: NCI-H460
# HT-29 = system: HT-29
# SK-MEL-28 = system: SK-MEL-28
# NCI-H522 = system: NCI-H522
# SK-OV-3 = system: SK-OV-3
# NCI-H23 = system: NCI-H23
# DU-145 = system: DU-145
# SK-MEL-5 = system: SK-MEL-5
# SNB-75 = system: SNB-75
# BT-549 = system: BT-549
# PC-3 = system: PC-3
# EKVX = system: EKVX
# MDA-MB-231 = system: MDA-MB-231
# NCI/ADR-RES = system: NCI/ADR-RES
# SNB-19 = system: SNB-19
# HCC 2998 = system: HCC 2998
smiles,measurement,setting,value
Cc1ncc([N+](=O)[O-])n1CCNC(=O)CCC(=O)NCCCn1ccnc1[N+](=O)[O-],GI50,IGROV-1,> 100 µM (inactive)
same,GI50,MOLT-4,> 100 µM (inactive)
same,GI50,U-251,> 100 µM (inactive)
same,GI50,SF-295,> 100 µM (inactive)
same,GI50,CCRF-CEM,> 100 µM (inactive)
same,GI50,SR,> 100 µM (inactive)
same,GI50,OVCAR-8,> 100 µM (inactive)
same,GI50,K562,> 100 µM (inactive)
same,GI50,LOX IMVI,> 100 µM (inactive)
same,GI50,ACHN,> 100 µM (inactive)
same,GI50,HOP-92,54 µM (inactive)
same,GI50,OVCAR-3,> 100 µM (inactive)
same,GI50,A549,> 100 µM (inactive)
same,GI50,UACC-62,> 100 µM (inactive)
same,GI50,SK-MEL-2,> 100 µM (inactive)
same,GI50,OVCAR-4,> 100 µM (inactive)
same,GI50,OVCAR-5,> 100 µM (inactive)
same,GI50,MDA-N,> 100 µM (inactive)
same,GI50,HL-60,> 100 µM (inactive)
same,GI50,MCF7,> 100 µM (inactive)
same,GI50,Malme-3M,> 100 µM (inactive)
same,GI50,RPMI-8226,> 100 µM (inactive)
same,GI50,HCT-15,> 100 µM
same,GI50,KM12,> 100 µM (inactive)
same,GI50,MDA-MB-435,> 100 µM (inactive)
same,GI50,A498,> 100 µM (inactive)
same,GI50,SN12C,> 100 µM (inactive)
same,GI50,UACC-257,> 100 µM (inactive)
same,GI50,T47D,> 100 µM (inactive)
same,GI50,SF-268,> 100 µM (inactive)
same,GI50,CAKI-1,> 100 µM (inactive)
same,GI50,NCI-H226,> 100 µM (inactive)
same,GI50,RXF 393,> 100 µM (inactive)
same,GI50,Hs-578T,> 100 µM (inactive)
same,GI50,786-0,> 100 µM (inactive)
same,GI50,UO-31,> 100 µM (inactive)
same,GI50,TK-10,> 100 µM (inactive)
same,GI50,SW-620,> 100 µM (inactive)
same,GI50,HOP-62,> 100 µM (inactive)
same,GI50,COLO 205,> 100 µM (inactive)
same,GI50,SF-539,> 100 µM (inactive)
same,GI50,M14,> 100 µM (inactive)
same,GI50,HCT-116,> 100 µM (inactive)
same,GI50,NCI-H460,> 100 µM (inactive)
same,GI50,HT-29,> 100 µM (inactive)
same,GI50,SK-MEL-28,> 100 µM (inactive)
same,GI50,NCI-H522,> 100 µM (inactive)
same,GI50,SK-OV-3,> 100 µM (inactive)
same,GI50,NCI-H23,> 100 µM (inactive)
same,GI50,DU-145,> 100 µM (inactive)
same,GI50,SK-MEL-5,> 100 µM (inactive)
same,GI50,SNB-75,> 100 µM (inactive)
same,GI50,BT-549,> 100 µM (inactive)
same,GI50,PC-3,> 100 µM (inactive)
same,GI50,EKVX,> 100 µM (inactive)
same,GI50,MDA-MB-231,> 100 µM (inactive)
same,GI50,NCI/ADR-RES,> 100 µM (inactive)
O=c1[nH]/c(=C/c2ccc(OCc3ccccc3)cn2)c(=O)[nH]/c1=C/c1ccc(F)cc1,GI50,IGROV-1,0.335 µM (active)
same,GI50,MOLT-4,0.4 µM (active)
same,GI50,U-251,1.05 µM (active)
same,GI50,SF-295,0.33 µM (active)
same,GI50,CCRF-CEM,0.458 µM (active)
same,GI50,SR,0.0815 µM (active)
same,GI50,OVCAR-8,3.74 µM (inactive)
same,GI50,K562,0.154 µM (active)
same,GI50,LOX IMVI,1.62 µM (inactive)
same,GI50,ACHN,1.72 µM (inactive)
same,GI50,HOP-92,0.586 µM (active)
same,GI50,OVCAR-3,0.207 µM (active)
same,GI50,A549,1.8 µM (inactive)
same,GI50,UACC-62,0.938 µM (active)
same,GI50,SK-MEL-2,7.35 µM (inactive)
same,GI50,OVCAR-5,> 33.3 µM (inactive)
same,GI50,MDA-N,0.069 µM (active)
same,GI50,HL-60,0.217 µM (active)
same,GI50,MCF7,0.301 µM (active)
same,GI50,Malme-3M,0.759 µM (active)
same,GI50,RPMI-8226,0.194 µM (active)
same,GI50,SNB-19,2.3 µM (inactive)
same,GI50,HCT-15,0.157 µM
same,GI50,KM12,0.344 µM (active)
same,GI50,MDA-MB-435,0.0902 µM (active)
same,GI50,A498,0.834 µM (active)
same,GI50,SN12C,0.785 µM (active)
same,GI50,UACC-257,0.512 µM (active)
same,GI50,T47D,1.42 µM (inactive)
same,GI50,SF-268,1.73 µM (inactive)
same,GI50,NCI-H226,2.22 µM (inactive)
same,GI50,HCC 2998,1.42 µM (inactive)
same,GI50,RXF 393,0.243 µM (active)
same,GI50,Hs-578T,0.542 µM (active)
same,GI50,786-0,0.447 µM (active)
same,GI50,UO-31,0.498 µM (active)
same,GI50,TK-10,4.36 µM (inactive)
same,GI50,SW-620,0.416 µM (active)
same,GI50,HOP-62,0.239 µM (active)
same,GI50,COLO 205,0.55 µM (active)
same,GI50,SF-539,0.923 µM (active)
same,GI50,M14,0.698 µM (active)
same,GI50,HCT-116,0.461 µM (active)
same,GI50,NCI-H460,0.541 µM (active)
same,GI50,HT-29,0.434 µM (active)
same,GI50,NCI-H522,0.41 µM (active)
same,GI50,SK-OV-3,0.794 µM (active)
same,GI50,NCI-H23,2.89 µM (inactive)
same,GI50,DU-145,0.931 µM (active)
same,GI50,SK-MEL-5,0.366 µM (active)
same,GI50,SNB-75,0.409 µM (active)
same,GI50,BT-549,4.97 µM (inactive)
same,GI50,PC-3,0.632 µM (active)
same,GI50,EKVX,3.49 µM (inactive)
same,GI50,MDA-MB-231,8.13 µM (inactive)
same,GI50,NCI/ADR-RES,0.614 µM (active)

# From ChEMBL document CHEMBL1201862, “PubChem BioAssay data set” (2004)
